Measured values taken from patent US8951760B2, “Method for producing an L-amino acid” (priority 2010, dated 2015).

Test system: L-lysine-producing bacterium, WC196 LC/pCABD2 strain
Experiment: L-lysine production culture in small fermentation tank with addition of thiourea or urea to the medium
Assay type: cell-based, Escherichia coli
Method: The glycerol stock of the L-lysine-producing bacterium, WC196 LC/pCABD2 strain, was inoculated in an amount of one loop to the LB agar medium (1% of tryptone, 0.5% of yeast extract, 0.5% of sodium chloride, 1.5% of agarose) containing 20 mg/L of streptomycin, and cultured at 37° C. for 24 hours as static culture.
The cells grown in the aforementioned preculture were scraped off from the medium, suspended in a 0.85% NaCl aqueous solution, and inoculated into 300 mL of MS glucose liquid fermentation medium or MS fatty acid liquid fermentation medium having the following compositions and contained in a small fermentation tank having a total volume of 1 L at a turbidity of 0.04 measured at a wavelength of 600 nm to start the culture. With the MS glucose liquid fermentation medium, the culture was performed at a culture temperature of 37° C. and a stirring rate of 300 rpm for 16 hours with the addition of 20 mg/L of streptomycin and aeration of compressed air sterilized with a sterilization filter at 1 vvm. Furthermore, pH was maintained at 6.7 with ammonia gas. With the MS fatty acid liquid fermentation medium, the culture was performed at a culture temperature of 37° C. and a stirring rate of 700 rpm for 42 hours with addition of 20 mg/L of streptomycin and aeration of compressed air sterilized with a sterilization filter at 1 vvm. Furthermore, pH was maintained at 6.7 with ammonia gas.
The culture was performed with adding 1 mM or 5 mM thiourea as an antioxidant at the time of the start of the culture. As controls, the culture was performed under a condition in which thiourea was not added (referred to as a thiourea-free condition), and a condition in which urea was added at the same concentrations as thiourea (referred to as a urea addition condition).
During the culture, an appropriate volume of each liquid medium was sampled, and the amount of L-lysine in the culture supernatant was measured with a Biotech Analyzer AS310 (Sakura SI). Complete consumption of the oleate added to the medium was confirmed by using a gas chromatograph GC-2014 (Shimadzu). Complete consumption of the glucose added to the medium was separately confirmed by using a Biotech Analyzer AS310. Furthermore, a Tween 80 solution was added at a final concentration of 1.0% (v/v) immediately after the end of the culture, the resultant was appropriately diluted, and turbidity was measured at a wavelength of 600 nm to measure cell amount at the time of the end of the culture.

[1] = carbon source fatty acid (sodium oleate), additive 1 mM
[2] = carbon source fatty acid (sodium oleate), additive 5 mM
[3] = carbon source glucose, additive 1 mM
[4] = carbon source glucose, additive 5 mM

Compound | Culture time required for consumption of carbon source [1] [h] | L-Lysine accumulation at the end of culture [1] [g/L] | OD600 at the end of culture [1] | Culture time required for consumption of carbon source [2] [h] | L-Lysine accumulation at the end of culture [2] [g/L] | OD600 at the end of culture [2] | Culture time required for consumption of carbon source [3] [h] | L-Lysine accumulation at the end of culture [3] [g/L] | OD600 at the end of culture [3] | Culture time required for consumption of carbon source [4] [h] | L-Lysine accumulation at the end of culture [4] [g/L] | OD600 at the end of culture [4]
NC(N)=S [Thiourea, thiourea] | 33.0 | 5.2 | 7.3 | 33.0 | 5.2 | 7.5 | 16.0 | 4.7 | 5.3 | 16.0 | 4.7 | 5.2
NC(N)=O [Urea, urea] | 41.5 | 4.8 | 6.8 | 41.5 | 4.8 | 6.9 | 16.0 | 4.6 | 5.2 | 16.0 | 4.6 | 5.2
